In general, pIC50 refers to the negative decadic logarithm of the IC50, by convention in mol/L. As usually defined, the inhibition is how much of the control response was suppressed. By MIC is commonly meant the smallest concentration in the dilution series that meets the test's criterion for growth inhibition. A high value points to a need for much substance. What is called pKi is −log10 of the Ki, conventionally taken in molar units.

pIC50, pKi: −log10 of the molar value. Converted amounts (≈) assume the structure as drawn.

A short description of test [1]: Inhibition of Mycobacterium marinum recombinant arylamine N-acetyltransferase-mediated acetyl coA hydrolysis by DTNB-based spectrophotometric analysis.
Test [2] is described as follows: Inhibition of Mycobacterium marinum recombinant arylamine N-acetyltransferase-mediated acetyl coA hydrolysis at 30 uM by DTNB-based spectrophotometric analysis.
Test [3] in a line: Inhibition of Pseudomonas aeruginosa arylamine N-acetyltransferase.
Test [4] concerns Mycobacterium tuberculosis. Kind of test: Antimycobacterial activity against Mycobacterium tuberculosis after 28 days. Type of test: functional. To be noted: 672 h.
The nature of test [5]: Competitive inhibition of Mycobacterium marinum recombinant arylamine N-acetyltransferase-mediated acetyl coA hydrolysis by DTNB-based spectrophotometric analysis.

Consider `Oc1ccc(F)cc1-c1cc(-c2ccc(F)cc2)[nH]n1`, for which the pIC50 in test [1] is less than 4.52. Moreover, the inhibition in test [2] turned out to be 32.7%.

Take `COc1ccc(-c2cc(-c3ccccc3)n[nH]2)cc1`: the pIC50 in test [1] was less than 4.52. Besides, in test [2], the inhibition was found to be 26.5%.

In the case of `COc1ccc(O)c(-c2cc(-c3ccc(F)cc3)[nH]n2)c1`, the pIC50 in test [1] was 4.67. The inhibition in test [2] amounted to 59.2%.

As for `COc1ccc(-c2cc(-c3cc(F)ccc3O)n[nH]2)cc1`, in test [1], the pIC50 is less than 4.52. The inhibition in test [2] worked out at 46.5%.

Regarding `COc1ccc(-c2cc(-c3cccc(OC)c3)n[nH]2)cc1`, the pIC50 in test [1] was less than 4.52. In addition, the inhibition in test [2] came out at 26.5%.

For `COc1ccc(-c2cc(-c3cc(OC)ccc3OC)n[nH]2)cc1`, the pIC50 in test [1] is less than 4.52. Moreover, the inhibition in test [2] was determined as 29.2%.

Regarding `Fc1ccc(-c2cc(-c3cc(F)ccc3F)n[nH]2)cc1`, the pIC50 in test [1] was less than 4.52. Besides, the inhibition in test [2] came out at 29.7%.

On to `COc1ccc(OC)c(-c2cc(-c3ccccc3)[nH]n2)c1`, for which the pIC50 in test [1] is 4.93. For the same molecule, the inhibition in test [2] stood at 50.7%.

As for `COc1ccc(-c2cc(-c3cc(OC)ccc3O)[nH]n2)cc1`, the pIC50 in test [3] is 5.01; in test [1], 4.73. In test [4], this molecule registered an MIC of 34 µM (≈ 10.1 µg/mL). Also, in test [5], the pKi was 4.63. Further, the inhibition in test [2] was 65.8%.

In the case of `COc1ccc(-c2cc(-c3cc(F)ccc3F)n[nH]2)cc1`, the pIC50 in test [1] is less than 4.52. Further, the inhibition in test [2] came out at 18.9%.

As to `Fc1ccc(F)c(-c2cc(-c3ccccc3)[nH]n2)c1`, the pIC50 in test [1] is 4.73. The inhibition in test [2] stood at 53.5%.

Take `COc1ccc(-c2cc(-c3cc(O)cc(O)c3)n[nH]2)cc1`: the pIC50 in test [1] is less than 4.52. The inhibition in test [2] is 15.6%.

For the molecule `COc1ccc(O)c(-c2cc(-c3ccccc3)[nH]n2)c1`, the pIC50 in test [1] was 4.89. The inhibition in test [2] was 53.9%.

With `COc1cccc(-c2cc(-c3ccc(F)cc3)[nH]n2)c1`, the pIC50 in test [1] is 4.75. The inhibition in test [2] worked out at 61.2%.

Regarding `COc1ccc(-c2cc(-c3cc(O)ccc3O)n[nH]2)cc1`, in test [1], the pIC50 is less than 4.52. Also, the inhibition in test [2] was 21.5%.

In the case of `c1ccc(-c2cc(-c3ccccc3)[nH]n2)cc1`, in test [1], the pIC50 was less than 4.52. In addition, the inhibition in test [2] came out at 45.2%.

Values taken from ChEMBL document CHEMBL2375319, “Design, synthesis and structure-activity relationships of 3,5-diaryl-1H-pyrazoles as inhibitors of arylamine N-acetyltransferase” (Bioorg Med Chem Lett, 2013).
